Four molecules from patent publication US11919965B2, “Methods of treating multiple myeloma with bispecific anti-BCMA x anti-CD3 antibodies” (Regeneron Pharmaceuticals, Inc., priority 2019, dated 2024) can be followed below.

Test [1] concerns MC38/BCMA tumors. Description: Syngenic MC38/BCMA tumor model in CD3-humanized mice, combination with anti-PD-1 (Example 20). The format is in vivo, mouse. The settings on record: for Average Tumor Size (mm3) ± SEM on Day 3 / Average Tumor Size (mm3) ± SEM on Day 7 / Average Tumor Size (mm3) ± SEM on Day 11 / Average Tumor Size (mm3) ± SEM on Day 14 / Average Tumor Size (mm3) ± SEM on Day 18 / Average Tumor Size (mm3) ± SEM on Day 21 / Average Tumor Size (mm3) ± SEM on Day 24 / Average Tumor Size (mm3) ± SEM on Day 28: doses on days 3, 7, 11. As for the experimental part:
(§1) Implantation and measurement of syngenic tumors: C57BL/6 mice that express human CD3deg in place of murine CD3deg (CD3-humanized mice) were subcutaneously implanted with 1×10^6 MC38 colon carcinoma cells that have been engineered to express full-length human BCMA (MC38/BCMA).
(§2) The mice were administered these Abs twice more on days 7 and 11 for a total of three doses, and tumor growth was assessed throughout the experiment.
(§3) Calculation of syngenic tumor growth and inhibition: In order to determine tumor volume by external caliper, the greatest longitudinal diameter (length in mm) and the greatest transverse diameter (width in mm) were determined. Tumor volumes based on caliper measurements were calculated by the formula: Volume (mm^3)=(length× width^2)/2.

Test [2] concerns MC38/BCMA tumors. Kind of test: Syngenic MC38/BCMA tumor model in CD3-humanized mice, combination with anti-PD-1, second experiment (Example 21). In kind it is in vivo, mouse. The protocol:
as §1, §2, §3

Test [3] has as its target monkey BCMA-MMH. Description: SPR (Biacore 4000) binding kinetics at 25° C. The settings on record: for 90 nM mfBCMA.mmh Bind (RU): antibody captured on anti-human Fc. As for the experimental part:
(§4) The CM5 Biacore sensor surface was derivatized by amine coupling with a monoclonal mouse anti-human Fc antibody (GE, #BR-1008-39) to capture purified anti-BCMA mAbs and anti-BCMA×anti-CD3 bispecific mAbs. All Biacore binding studies were performed in a buffer composed of 0.01M HEPES pH 7.4, 0.15M NaCl, 3 mM EDTA, 0.05% v/v Surfactant P20 (HBS-ET running buffer). […] Antigen samples were then injected over the anti-BCMA and anti-BCMA×anti-CD3 bispecific mAbs captured surfaces at a flow rate of 30 μL/minute. Antibody-reagent association was monitored for 5 minutes while dissociation in HBS-ET running buffer was monitored for 10 minutes. All of the binding kinetics experiments were performed at 25° C. Kinetic association (ka) and dissociation (kd) rate constants were determined by fitting the real-time sensorgrams to a 1:1 binding model using Scrubber 2.0c curve fitting software. Binding dissociation equilibrium constants (KD) and dissociative half-lives (t1/2) were calculated from the kinetic rate constants as: […]
(Surface plasmon resonance follows binding to a sensor surface in real time, without labels.)

Test [4] has as its target T1, human BCMA-MMH (Homo sapiens, UniProt Q02223).
T1 construct: extracellular domain of human BCMA expressed with C-terminal myc-myc-hexahistidine tag (human BCMA-MMH)
Kind of test: SPR (Biacore 4000) binding kinetics at 25° C. The protocol:
as §4

Test [5] has as its target T2, human BCMA-MFC (Homo sapiens, UniProt Q02223).
T2 construct: extracellular domain of human BCMA expressed with C-terminal mFc tag (human BCMA-MFC)
Kind of test: SPR (Biacore 4000) binding kinetics at 25° C. As for the experimental part:
as §4

In test [6] the test system is monkey BCMA-MFC. Kind of test: SPR (Biacore 4000) binding kinetics at 25° C. The protocol:
as §4

Test [7] addresses T3, mouse BCMA-MFC (Mus musculus, UniProt O88472).
T3 construct: 30 nM BCMA expressed with C-terminal mFc tag (mouse BCMA-MFC)
Description: SPR (Biacore 4000) binding kinetics at 25° C. The protocol:
as §4

Setting [8] is: bispecific 0.04 mg/kg + second antibody 4 mg/kg.
Setting [9] is: bispecific 0.24 mg/kg + second antibody 4 mg/kg.
Setting [10] is: bispecific 0.04 mg/kg + partner antibody 4 mg/kg.
Setting [11] is: bispecific 0.4 mg/kg + second antibody 4 mg/kg.

monkey BCMA-MFC, sequence (as listed by the source): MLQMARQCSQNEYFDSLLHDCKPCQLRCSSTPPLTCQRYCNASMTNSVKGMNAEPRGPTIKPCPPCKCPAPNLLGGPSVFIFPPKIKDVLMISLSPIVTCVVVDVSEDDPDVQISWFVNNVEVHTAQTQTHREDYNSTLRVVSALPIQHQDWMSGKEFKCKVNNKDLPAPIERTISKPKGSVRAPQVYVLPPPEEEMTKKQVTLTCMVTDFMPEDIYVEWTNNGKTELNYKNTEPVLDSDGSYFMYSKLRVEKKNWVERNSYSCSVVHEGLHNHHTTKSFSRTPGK
T2 sequence (Q02223 with tags, fused parts or gaps): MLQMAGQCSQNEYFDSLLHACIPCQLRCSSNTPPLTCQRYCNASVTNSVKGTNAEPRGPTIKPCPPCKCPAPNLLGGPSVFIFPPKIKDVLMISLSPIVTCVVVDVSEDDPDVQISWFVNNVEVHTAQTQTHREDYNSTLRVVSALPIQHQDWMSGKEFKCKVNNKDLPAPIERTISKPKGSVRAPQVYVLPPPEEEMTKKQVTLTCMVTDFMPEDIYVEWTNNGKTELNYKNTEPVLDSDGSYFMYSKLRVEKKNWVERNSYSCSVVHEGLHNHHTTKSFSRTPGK
monkey BCMA-MMH, sequence (as listed by the source): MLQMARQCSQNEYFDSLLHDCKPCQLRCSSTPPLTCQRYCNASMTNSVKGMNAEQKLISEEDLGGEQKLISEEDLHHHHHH
T1 sequence (Q02223 with tags, fused parts or gaps): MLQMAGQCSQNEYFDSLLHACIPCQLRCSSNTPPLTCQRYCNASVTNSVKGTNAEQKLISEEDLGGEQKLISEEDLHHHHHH
T3 sequence (O88472 with tags, fused parts or gaps): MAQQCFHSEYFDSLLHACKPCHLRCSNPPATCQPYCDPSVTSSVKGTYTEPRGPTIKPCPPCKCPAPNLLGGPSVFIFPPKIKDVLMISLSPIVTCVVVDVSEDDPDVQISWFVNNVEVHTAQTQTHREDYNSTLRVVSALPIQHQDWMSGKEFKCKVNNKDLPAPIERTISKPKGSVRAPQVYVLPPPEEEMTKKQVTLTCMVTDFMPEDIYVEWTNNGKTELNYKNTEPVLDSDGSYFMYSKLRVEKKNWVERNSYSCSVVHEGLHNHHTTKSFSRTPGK

Regarding “REGN5458 + Isotype: combination of REGN5458 with isotype control Ab (Clone 2A3)”, in test [1] (setting [8]), the “Average Tumor Size (mm3) ± SEM on Day 3” value is recorded as 15.62 ± 1.61 mm3, the “Average Tumor Size (mm3) ± SEM on Day 7” value is 37.98 ± 3.93 mm3, the “Average Tumor Size (mm3) ± SEM on Day 11” value was 112.53 ± 17.39 mm3 and the “Average Tumor Size (mm3) ± SEM on Day 14” value is recorded as 438.16 ± 59.56 mm3. Besides, in test [1] (setting [8]), the “Average Tumor Size (mm3) ± SEM on Day 18” value was 1040.12 ± 61.95 mm3, the “Average Tumor Size (mm3) ± SEM on Day 21” value is reported as 2133.12 ± 129.26 mm3, the “Average Tumor Size (mm3) ± SEM on Day 24” value is 3648.37 ± 536.71 mm3 and the “Average Tumor Size (mm3) ± SEM on Day 28” value is “All Animals Euthanized”. In addition, in test [1] (setting [9]), the “Average Tumor Size (mm3) ± SEM on Day 3” value is 13.13 ± 3.12 mm3, the “Average Tumor Size (mm3) ± SEM on Day 7” value was determined as 29.27 ± 5.00 mm3, the “Average Tumor Size (mm3) ± SEM on Day 11” value came out at 36.63 ± 14.89 mm3 and the “Average Tumor Size (mm3) ± SEM on Day 14” value is 224.33 ± 47.04 mm3. Moreover, in test [1] (setting [9]), the “Average Tumor Size (mm3) ± SEM on Day 18” value is 515.15 ± 115.38 mm3, the “Average Tumor Size (mm3) ± SEM on Day 21” value is 1225.47 ± 289.39 mm3, the “Average Tumor Size (mm3) ± SEM on Day 24” value worked out at 1493.26 ± 973.01 mm3 and the “Average Tumor Size (mm3) ± SEM on Day 28” value is recorded as 1371.17 ± 0.00 mm3. In addition, the “Number of Mice Tumor-Free at End of Experiment (Day 28)” value in test [1] (setting [10]) was 0 of 7. Besides, the “Number of Mice Tumor-Free at End of Experiment (Day 28)” value in test [1] (bispecific 0.24 mg/kg + partner antibody 4 mg/kg) is on record as 0 of 6. In test [2] (setting [8]), the “Average Tumor Size (mm3) ± SEM on Day 3” value came to 12.41 ± 2.56 mm3, the “Average Tumor Size (mm3) ± SEM on Day 6” value amounted to 38.79 ± 3.52 mm3, the “Average Tumor Size (mm3) ± SEM on Day 10” value was 116.32 ± 19.99 mm3 and the “Average Tumor Size (mm3) ± SEM on Day 13” value was found to be 319.91 ± 53.05 mm3. Moreover, in test [2] (setting [8]), the “Average Tumor Size (mm3) ± SEM on Day 18” value turned out to be 1314.27 ± 211.22 mm3, the “Average Tumor Size (mm3) ± SEM on Day 21” value is reported as 2446.35 ± 395.48 mm3 and the “Average Tumor Size (mm3) ± SEM on Day 25” value was determined as 2411.64 ± 451.96 mm3. For the same molecule, in test [2] (setting [11]), the “Average Tumor Size (mm3) ± SEM on Day 3” value is on record as 11.22 ± 0.68 mm3, the “Average Tumor Size (mm3) ± SEM on Day 6” value was 16.11 ± 1.27 mm3, the “Average Tumor Size (mm3) ± SEM on Day 10” value is given as 24.27 ± 6.74 mm3 and the “Average Tumor Size (mm3) ± SEM on Day 13” value is reported as 50.93 ± 20.00 mm3. For the same molecule, in test [2] (setting [11]), the “Average Tumor Size (mm3) ± SEM on Day 18” value turned out to be 248.51 ± 107.21 mm3, the “Average Tumor Size (mm3) ± SEM on Day 21” value was 453.43 ± 174.75 mm3 and the “Average Tumor Size (mm3) ± SEM on Day 25” value stood at 661.70 ± 331.60 mm3. Moreover, the “Number of Mice Tumor-Free at End of Experiment (Day 25)” value in test [2] (setting [10]) is recorded as 0 of 10. Moreover, in test [2] (bispecific 0.4 mg/kg + partner antibody 4 mg/kg), the “Number of Mice Tumor-Free at End of Experiment (Day 25)” value is 2 of 10.

B1: REGN4514: anti-BCMA antibody, HCVR/LCVR SEQ ID NOs 34/42 (antibody, V domains shown)
VH: EVQLVESGGGLVQPGRSLRLSCAASGFTFDDYAMHWVRQAPGKGLEWVSGISWNSGNMGYADSVKGRFTISRDNAKNSLFLQMHSLRAEDTAFYYCAKVRLTAFDFWGQGTLVTVSS
VL: DIQMTQSPSSLSASVGDRVTITCRTSQSIGNYLNWFQQKPGKAPKLLIYTASSLQNGVPSRFTGSGSGTDFTLTISSLQPEDFVIYYCQQSFSTPYTFGQGTKLEIK
B1: in test [3], the Kd was more than 90 nM. Also, in test [3], the “90 nM mfBCMA.mmh Bind (RU)” value was found to be 1.1 RU. Besides, the “ka” value in test [4] was 1.06e+06 M⁻¹ s⁻¹; in test [5] it was 1.07e+06 M⁻¹ s⁻¹; in test [6], 492000 M⁻¹ s⁻¹; in test [7], 397000 M⁻¹ s⁻¹. Also, the “kd” value in test [4] was 0.00285 s⁻¹; in test [5] it was 4.53e-05 s⁻¹; in test [6], 0.00724 s⁻¹; in test [7] it was 0.000269 s⁻¹.

B2: mAb16711: anti-BCMA antibody, HCVR/LCVR SEQ ID NOs 2/10 (antibody, V domains shown)
VH: QVQLVESGGGVVQPGRSLRLSCAASGFTFSTYGIHWVRQAPGKGLEWVAVILHDGSSNYYAESVKGRFIISRDNSKNTLYLQMNSLRAEDTALYYCTKRYSEAAGPNWFDPWGQGTLVTVSS
VL: DIQMTQSPSSVSASVGDRVTITCRASRGISSWLAWYQQKPGKAPKLLIHAASSLQSGVPSRFSGSGSGTDFTLTISSLQPEDFATYYCQQAISFPFTFGPGTKVDIK
Turning to B2, the “ka” value is 2.01e+06 M⁻¹ s⁻¹ in test [4], 1.85e+06 M⁻¹ s⁻¹ in test [5] and 1.07e+06 M⁻¹ s⁻¹ in test [7]. Also, the entries for the “kd” value in test [4], in test [5] and in test [7] were 0.00347 s⁻¹, 0.00019 s⁻¹ and 0.0011 s⁻¹, respectively. This molecule also displayed a Kd in test [6] of more than 30 nM.

B3: REGN4515: anti-BCMA antibody, HCVR/LCVR SEQ ID NOs 50/58 (antibody, V domains shown)
VH: QVQLVESGGGLVKPGGSLRLSCAASGFTFSDYYISWIRQAPGKGLEWVSYISSSGSSIKYADSVKGRFTISRDNAKNSLYLQMNSLRAEDTAVYYCAREGGNYGMDVWGQGTTVTVSS
VL: DIQMTQSPSSVSASVGDRVTITCRASQGINNWLVWYQQKPGKAPKLLIYAATSLQSGVPSRFSGSGSGTDFTLTISSLQPEDFATYYCQQANSFPPTFGQGTKLEIK
With B3, the equilibrium dissociation constant (Kd) in test [3] is more than 90 nM. In addition, the “90 nM mfBCMA.mmh Bind (RU)” value in test [3] was 1.9 RU. Also, the “ka” value in test [4] turned out to be 869000 M⁻¹ s⁻¹; in test [5] it was 1.41e+06 M⁻¹ s⁻¹; in test [6] it was 2.13e+06 M⁻¹ s⁻¹; in test [7] it was 947000 M⁻¹ s⁻¹. The “kd” value in test [4] was determined as 0.00247 s⁻¹; in test [5], 8.95e-05 s⁻¹; in test [6] it was 0.00716 s⁻¹; in test [7], 0.00418 s⁻¹.

In general, Kd refers to the constant that tells how readily two partners part at equilibrium.
